In brackets after ≈: the same amount, converted by molar mass.
Legend:
Assay in all cases: microbe, parasite or virus in culture
C. neoformans = assay type: cell-based, Cryptococcus neoformans
Excerpt: (§1) Microbial strains: Microbial strains were procured from National Culture Collection of Pathogenic Fungi (NCCPF) at the Postgraduate Institute of Medical Education & Research (PGIMER), Chandigarh and Microbial Type Culture Collection and Gene bank (MTCC) at the Institute of Microbial Technology (IMTECH), Chandigarh, India. Peptides were screened against five different strains of fungi: viz. Candida albicans (NCCPF400034), Candida glabrata (MTCC 3019), Candida parapsilosis (NCCPF 440002), Candida krusei (NCCPF 440002) and Cryptococcus neoformans (NCCPF250316), and five strains of bacteria: viz. Escherichia coli (MTCC 2961), Staphylococcus aureus (MTCC 3160), Enterococcus faecalis (MTCC 439), Streptococcus pyogenes (MTCC 442) and Pseudomonas aeruginosa (MTCC 3542).
(§2) Growth media: Antifungal susceptibility testing was carried out using standard broth microdilution assays as per the Clinical and Laboratory Standards Institute (CLSI) guidelines for fungi. RPMI 1640 (Sigma), yeast extract, peptone and dextrose (YPED, Himedia) were used as the incubation broths. The cells were diluted to a cell density of 10^3 colony forming unit (CFU/mL) and incubated at 30 °C for 48 h. Furthermore, Muller Hinton (Himedia) media was utilized for bacterial strains and antibacterial activity was evaluated per CLSI guidelines for bacteria. Bacterial cells were diluted to a cell density of 10^5 CFU/mL and incubated at 37 °C for 24 h. Amphotericin B (Himedia, India) and rifampicin (Himedia, India) were used as standard drugs for the evaluation of activity against all the fungal and bacterial strains, respectively.
(§3) The stock solutions of peptides (2 mg/mL) were prepared in DMSO. Specific amounts of peptide from stock solution were added to a 96-well microtiter plate containing 100 μL of growth media and then serially diluted two-fold. A further 100 μL of growth media containing microbial cells were added to each well and incubated at 30–37 °C for 24–48 h. The optical density (OD) was measured at 600 nm using a BioStack Ready (BioTek Instruments, Winooski, VT, USA) microplate reader to analyze microbial growth inhibition, and IC50 and MIC values were calculated. To visualize the growth and inhibition pattern, a solution of 3-(4,5-dimethylthiazol-2-yl)-2,5-diphenyltetrazolium bromide (MTT) in water was added to the plate and incubated for 2–3 h. MTT reacts with the mitochondrial dehydrogenases, which are present only in a viable cell, to give blue colored formazan crystals. Therefore, a darker color indicates a high number of viable cells; however, non-viable cells appear pale or colorless.

C. albicans = assay type: cell-based, Candida albicans; details: 48 h
Excerpt: as §1, §2, §3

C. glabrata = assay type: cell-based, Candida glabrata; details: 48 h
Excerpt: as §1, §2, §3

C. parapsilosis = assay type: cell-based, Candida parapsilosis; details: 48 h
Excerpt: as §1, §2, §3

C. krusei = assay type: cell-based, Candida krusei; details: 48 h
Excerpt: as §1, §2, §3

[1] = C. neoformans, lowest test concentration with no detectable growth

COC(=O)[C@H](Cc1ncn(Cc2ccc(F)c(F)c2)c1I)NC(=O)[C@H](Cc1c[nH]c2ccccc12)NC(=O)OC(C)(C)C [9i]
IC50 (C. neoformans; 48 h): 17.62 µg/mL (≈ 24.9 µM)
MIC (C. neoformans; 48 h): 32.05 µg/mL (≈ 45.3 µM)
IC50 (C. albicans): >35.2 µg/mL
MIC (C. albicans): >64.0 µg/mL
IC50 (C. glabrata): >35.2 µg/mL
MIC (C. glabrata): >64.0 µg/mL
IC50 (C. parapsilosis): >35.2 µg/mL
MIC (C. parapsilosis): >64.0 µg/mL
IC50 (C. krusei): >35.2 µg/mL
MIC (C. krusei): >64.0 µg/mL

COC(=O)[C@H](Cc1ncn(Cc2ccccc2C(F)(F)F)c1I)NC(=O)[C@H](Cc1c[nH]c2ccccc12)NC(=O)OC(C)(C)C [9f]
IC50 (C. neoformans; 48 h): 30.56 µg/mL (≈ 41.3 µM)
MIC (C. neoformans; 48 h): 55.57 µg/mL (≈ 75.1 µM)
IC50 (C. albicans): >35.2 µg/mL
MIC (C. albicans): >64.0 µg/mL
IC50 (C. glabrata): >35.2 µg/mL
MIC (C. glabrata): >64.0 µg/mL
IC50 (C. parapsilosis): >35.2 µg/mL
MIC (C. parapsilosis): >64.0 µg/mL
IC50 (C. krusei): >35.2 µg/mL
MIC (C. krusei): >64.0 µg/mL

COC(=O)[C@H](Cc1ncn(Cc2cccc(C(F)(F)F)c2)c1I)NC(=O)[C@H](Cc1c[nH]c2ccccc12)NC(=O)OC(C)(C)C [9e]
IC50 (C. neoformans; 48 h): 20.71 µg/mL (≈ 28 µM)
MIC (C. neoformans; 48 h): 37.65 µg/mL (≈ 50.9 µM)
IC50 (C. albicans): >35.2 µg/mL
MIC (C. albicans): >64.0 µg/mL
IC50 (C. glabrata): >35.2 µg/mL
MIC (C. glabrata): >64.0 µg/mL
IC50 (C. parapsilosis): >35.2 µg/mL
MIC (C. parapsilosis): >64.0 µg/mL
IC50 (C. krusei): >35.2 µg/mL
MIC (C. krusei): >64.0 µg/mL

COC(=O)[C@H](Cc1ncn(Cc2ccc(F)c(F)c2)c1I)NC(=O)[C@@H](N)Cc1c[nH]c2ccccc12 [10i]
IC50 (C. neoformans; 48 h): 10.28 µg/mL (≈ 16.9 µM)
MIC (C. neoformans; [1]): 18.7 µg/mL (≈ 30.8 µM)
IC50 (C. albicans): >35.2 µg/mL
MIC (C. albicans): >64.0 µg/mL
IC50 (C. glabrata): >35.2 µg/mL
MIC (C. glabrata): >64.0 µg/mL
IC50 (C. parapsilosis): >35.2 µg/mL
MIC (C. parapsilosis): >64.0 µg/mL
IC50 (C. krusei): >35.2 µg/mL
MIC (C. krusei): >64.0 µg/mL

COC(=O)[C@H](Cc1ncn(Cc2ccccc2C(F)(F)F)c1I)NC(=O)[C@@H](N)Cc1c[nH]c2ccccc12 [10f]
IC50 (C. neoformans; 48 h): 17.70 µg/mL (≈ 27.7 µM)
MIC (C. neoformans; 48 h): 32.18 µg/mL (≈ 50.3 µM)
IC50 (C. albicans): >35.2 µg/mL
MIC (C. albicans): >64.0 µg/mL
IC50 (C. glabrata): >35.2 µg/mL
MIC (C. glabrata): >64.0 µg/mL
IC50 (C. parapsilosis): >35.2 µg/mL
MIC (C. parapsilosis): >64.0 µg/mL
IC50 (C. krusei): >35.2 µg/mL
MIC (C. krusei): >64.0 µg/mL

COC(=O)[C@H](Cc1ncn(Cc2ccccc2I)c1I)NC(=O)[C@H](Cc1c[nH]c2ccccc12)NC(=O)OC(C)(C)C [9o]
IC50 (C. neoformans; 48 h): >35.2 µg/mL
MIC (C. neoformans; 48 h): >64.0 µg/mL
IC50 (C. albicans): >35.2 µg/mL
MIC (C. albicans): >64.0 µg/mL
IC50 (C. glabrata): >35.2 µg/mL
MIC (C. glabrata): >64.0 µg/mL
IC50 (C. parapsilosis): >35.2 µg/mL
MIC (C. parapsilosis): >64.0 µg/mL
IC50 (C. krusei): >35.2 µg/mL
MIC (C. krusei): >64.0 µg/mL

COC(=O)[C@H](Cc1ncn(Cc2ccc(C(F)(F)F)cc2)c1I)NC(=O)[C@@H](N)Cc1c[nH]c2ccccc12 [10g]
IC50 (C. neoformans; 48 h): 13.53 µg/mL (≈ 21.2 µM)
MIC (C. neoformans; [1]): 24.6 µg/mL (≈ 38.5 µM)
Fold reduction of activity (C. neoformans; C. neoformans, on replacing methyl of the tert-butyl moiety with fluorine): 2.6 fold
IC50 (C. albicans): >35.2 µg/mL
MIC (C. albicans): >64.0 µg/mL
IC50 (C. glabrata): >35.2 µg/mL
MIC (C. glabrata): >64.0 µg/mL
IC50 (C. parapsilosis): >35.2 µg/mL
MIC (C. parapsilosis): >64.0 µg/mL
IC50 (C. krusei): >35.2 µg/mL
MIC (C. krusei): >64.0 µg/mL

COC(=O)[C@H](Cc1ncn(Cc2ccccc2)c1I)NC(=O)[C@H](Cc1c[nH]c2ccccc12)NC(=O)OC(C)(C)C [9a]
IC50 (C. neoformans; 48 h): 17.78 µg/mL (≈ 26.5 µM)
MIC (C. neoformans; 48 h): 32.34 µg/mL (≈ 48.2 µM)
IC50 (C. albicans): >35.2 µg/mL
MIC (C. albicans): >64.0 µg/mL
IC50 (C. glabrata): >35.2 µg/mL
MIC (C. glabrata): >64.0 µg/mL
IC50 (C. parapsilosis): >35.2 µg/mL
MIC (C. parapsilosis): >64.0 µg/mL
IC50 (C. krusei): >35.2 µg/mL
MIC (C. krusei): >64.0 µg/mL

Source: paper PMC9821961, “Ring-Modified Histidine-Containing Cationic Short Peptides Exhibit Anticryptococcal Activity by Cellular Disruption” (Molecules, 2022)
